Oligonucleotides are written 5' to 3', each unit as a sugar letter and its base; * is a phosphorothioate linkage, no mark a phosphodiester; rarer units and linkages stand in square brackets, end groups in braces. Plain capitals give the bases only. l = locked nucleic acid (LNA); k = constrained ethyl (cEt); [5mC] = 5-methylcytosine; d = 2'-deoxy (DNA)
Columns and labels:
total AR mRNA = test: Total (full-length) AR mRNA in C4-2B MR cells, free uptake; format: cell-based, human; settings: free uptake, 24 hrs
Protocol: Cells were plated at a density of 40,000 cells per well in 96-well plates and cultured in RPMI1640 medium with 10% fetal bovine serum. […] ISIS 549372, ISIS 549458, ISIS 549434, and ISIS 554221 were each added at 0.04 μM, 0.20 μM, 1.00 μM, and 5.00 μM concentrations of antisense oligonucleotide to culture media for free uptake by the cells. […] After a treatment period of 24 hrs, total AR mRNA levels were measured by quantitative real-time PCR using primer probe set RTS3559.

KLK3 mRNA = KLK3 mRNA (AR target gene) in C4-2B MR cells; format: cell-based, human
KLK2 mRNA = KLK2 mRNA (AR target gene) in C4-2B MR cells; format: cell-based, human
C4-2B MR cells = test: Proliferation of MDV3100-resistant C4-2B cells (CellTiter 96); format: cell-based, human; settings: 6 days
Protocol: ISIS 549372, ISIS 549434, ISIS 549458, and ISIS 554221 were each added to the culture media at 0.04 μM, 0.20 μM, 1.00 μM, and 5.00 μM concentration of antisense oligonucleotide. ISIS 347526 was included as a negative control. After a treatment period of 6 days, the proliferative capacity of the cancer cells was measured with using CellTiter 96® AQueous One Solution Cell Proliferation kit (Promega), following the manufacturer's instructions. Results are presented in Table 41 as percent inhibition of proliferation, relative to non-treated cells.

AR mRNA [1] = test: AR mRNA levels in LMR20 cells (with/without DHT or R1881); format: cell-based, human; settings: LMR20 cells; for AR mRNA levels (% baseline value) after treatment with DHT: DHT 10 nM 72 hrs; for AR mRNA levels (% baseline value) after treatment with R1881: R1881 10 nM 72 hrs; for AR mRNA levels (% baseline value) of cells without AR agonist treatment: no AR agonist
Protocol: (§1) LMR20 cells were plated at 1,500 cells per well in phenol red-free medium with CSS.

[2] = test system: prostate-specific antigen (PSA) mRNA; test: PSA mRNA levels in LMR20 cells; format: cell-based, human; settings: LMR20 cells; for PSA mRNA levels (% baseline value) after treatment with DHT: DHT 10 nM 72 hrs; for PSA mRNA levels (% baseline value) after treatment with R1881: R1881 10 nM 72 hrs; for PSA mRNA levels (% baseline value) of cells without AR agonist treatment: no AR agonist
Protocol: LMR20 cells were plated at 1,500 cells per well in phenol red-free medium with CSS. […] Results are presented in Tables 43-45 as mRNA levels expressed as a percentage of the baseline values. mRNA levels may be lowered or increased after treatment.

TMPRSS2 mRNA = TMPRSS2 mRNA levels in LMR20 cells; format: cell-based, human; settings: LMR20 cells; for TMPRSS2 mRNA levels (% baseline value) after treatment with DHT: DHT 10 nM 72 hrs; for TMPRSS2 mRNA levels (% baseline value) after treatment with R1881: R1881 10 nM 72 hrs; for TMPRSS2 mRNA levels (% baseline value) of cells without AR agonist treatment: no AR agonist
Protocol: as §1

AR mRNA [3] = test: AR mRNA in LnCaP cells by free uptake (hAR_LTS00943); format: cell-based, human; settings: 24 hrs
Protocol: Cells were plated at a concentration of 4,000 cells/well in 96-well plates. ISIS oligonucleotides, specified in Table 68, were added individually at 0.02 μM, 0.10 μM, 0.50 μM, 2.50 μM, or 10.00 μM. After an incubation period of 24 hrs, mRNA levels were measured using primer probe set hAR_LTS00943.

AR mRNA [4] = test: Antisense inhibition of human AR in HuVEC cells, single concentration (electroporation, qRT-PCR RTS3559); format: cell-based; settings: 500 nM ASO, electroporation, ~24 h, Table 2
In short: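 AR mRNA levels were measured with human primer-probe set RTS3559 and adjusted for total RNA (RIBOGREEN). Cells were HuVEC, with each antisense oligonucleotide delivered by electroporation at one concentration.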

AR mRNA [5] = test: Dose-dependent antisense inhibition of human AR in HuVEC cells (electroporation, qRT-PCR RTS3559, IC50); format: cell-based; settings: HuVEC, ~16 h, Table 4
In short: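 HuVEC cells dosed with antisense oligonucleotides by electroporation and treated approximately 16 hours. AR mRNA quantified by real-time qPCR with primer probe set RTS3559 and normalised to total RNA by RIBOGREEN; IC50 from dose-response.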

554221 (ACCAAGTTTCTTCAGC; sugars from the 5' end l3 d10 l3, all phosphorothioate, methylation of C not given here) [compound 554221]
Percent inhibition of full-length AR mRNA in C4-2B MR cells (total AR mRNA; 0.04 μM): 0% | Percent inhibition of full-length AR mRNA in C4-2B MR cells (total AR mRNA; 0.20 μM): 0% | Percent inhibition of full-length AR mRNA in C4-2B MR cells (total AR mRNA; 1.00 μM): 0% | Percent inhibition of full-length AR mRNA in C4-2B MR cells (total AR mRNA; 5.00 μM): 23% | Percent inhibition of KLK3 mRNA in C4-2B MR cells (KLK3 mRNA; 0.04 μM): 0% | Percent inhibition of KLK3 mRNA in C4-2B MR cells (KLK3 mRNA; 0.20 μM): 0% | Percent inhibition of KLK3 mRNA in C4-2B MR cells (KLK3 mRNA; 1.00 μM): 47% | Percent inhibition of KLK3 mRNA in C4-2B MR cells (KLK3 mRNA; 5.00 μM): 56% | Percent inhibition of KLK2 mRNA in C4-2B MR cells (KLK2 mRNA; 0.04 μM): 24% | Percent inhibition of KLK2 mRNA in C4-2B MR cells (KLK2 mRNA; 0.20 μM): 25% | Percent inhibition of KLK2 mRNA in C4-2B MR cells (KLK2 mRNA; 1.00 μM): 56% | Percent inhibition of KLK2 mRNA in C4-2B MR cells (KLK2 mRNA; 5.00 μM): 66% | Percent inhibition of C4-2B MR cell proliferation (C4-2B MR cells; 0.04 μM): 11% | Percent inhibition of C4-2B MR cell proliferation (C4-2B MR cells; 0.20 μM): 12% | Percent inhibition of C4-2B MR cell proliferation (C4-2B MR cells; 1.00 μM): 0% | Percent inhibition of C4-2B MR cell proliferation (C4-2B MR cells; 5.00 μM): 24% | AR mRNA levels (% baseline value) after treatment with DHT (AR mRNA [1]; ASO 0.04 μM): 137 % baseline value | AR mRNA levels (% baseline value) after treatment with DHT (AR mRNA [1]; ASO 0.20 μM): 135 % baseline value | AR mRNA levels (% baseline value) after treatment with DHT (AR mRNA [1]; ASO 1.0 μM): 136 % baseline value | AR mRNA levels (% baseline value) after treatment with DHT (AR mRNA [1]; ASO 5.0 μM): 100 % baseline value | AR mRNA levels (% baseline value) after treatment with R1881 (AR mRNA [1]; ASO 0.04 μM): 131 % baseline value | AR mRNA levels (% baseline value) after treatment with R1881 (AR mRNA [1]; ASO 0.20 μM): 133 % baseline value | AR mRNA levels (% baseline value) after treatment with R1881 (AR mRNA [1]; ASO 1.0 μM): 124 % baseline value | AR mRNA levels (% baseline value) after treatment with R1881 (AR mRNA [1]; ASO 5.0 μM): 99 % baseline value | AR mRNA levels (% baseline value) of cells without AR agonist treatment (AR mRNA [1]; ASO 0.04 μM): 124 % baseline value | AR mRNA levels (% baseline value) of cells without AR agonist treatment (AR mRNA [1]; ASO 0.20 μM): 140 % baseline value | AR mRNA levels (% baseline value) of cells without AR agonist treatment (AR mRNA [1]; ASO 1.0 μM): 132 % baseline value | AR mRNA levels (% baseline value) of cells without AR agonist treatment (AR mRNA [1]; ASO 5.0 μM): 98 % baseline value | PSA mRNA levels (% baseline value) after treatment with DHT ([2]; ASO 0.04 μM): 97 % baseline value | PSA mRNA levels (% baseline value) after treatment with DHT ([2]; ASO 0.20 μM): 86 % baseline value | PSA mRNA levels (% baseline value) after treatment with DHT ([2]; ASO 1.0 μM): 64 % baseline value | PSA mRNA levels (% baseline value) after treatment with DHT ([2]; ASO 5.0 μM): 64 % baseline value | PSA mRNA levels (% baseline value) after treatment with R1881 ([2]; ASO 0.04 μM): 100 % baseline value | PSA mRNA levels (% baseline value) after treatment with R1881 ([2]; ASO 0.20 μM): 93 % baseline value | PSA mRNA levels (% baseline value) after treatment with R1881 ([2]; ASO 1.0 μM): 80 % baseline value | PSA mRNA levels (% baseline value) after treatment with R1881 ([2]; ASO 5.0 μM): 57 % baseline value | PSA mRNA levels (% baseline value) of cells without AR agonist treatment ([2]; ASO 0.04 μM): 106 % baseline value | PSA mRNA levels (% baseline value) of cells without AR agonist treatment ([2]; ASO 0.20 μM): 118 % baseline value | PSA mRNA levels (% baseline value) of cells without AR agonist treatment ([2]; ASO 1.0 μM): 58 % baseline value | PSA mRNA levels (% baseline value) of cells without AR agonist treatment ([2]; ASO 5.0 μM): 87 % baseline value | TMPRSS2 mRNA levels (% baseline value) after treatment with DHT (TMPRSS2 mRNA; ASO 0.04 μM): 121 % baseline value | TMPRSS2 mRNA levels (% baseline value) after treatment with DHT (TMPRSS2 mRNA; ASO 0.20 μM): 118 % baseline value | TMPRSS2 mRNA levels (% baseline value) after treatment with DHT (TMPRSS2 mRNA; ASO 1.0 μM): 122 % baseline value | TMPRSS2 mRNA levels (% baseline value) after treatment with DHT (TMPRSS2 mRNA; ASO 5.0 μM): 114 % baseline value | TMPRSS2 mRNA levels (% baseline value) after treatment with R1881 (TMPRSS2 mRNA; ASO 0.04 μM): 136 % baseline value | TMPRSS2 mRNA levels (% baseline value) after treatment with R1881 (TMPRSS2 mRNA; ASO 0.20 μM): 134 % baseline value | TMPRSS2 mRNA levels (% baseline value) after treatment with R1881 (TMPRSS2 mRNA; ASO 1.0 μM): 125 % baseline value | TMPRSS2 mRNA levels (% baseline value) after treatment with R1881 (TMPRSS2 mRNA; ASO 5.0 μM): 122 % baseline value | TMPRSS2 mRNA levels (% baseline value) of cells without AR agonist treatment (TMPRSS2 mRNA; ASO 0.04 μM): 95 % baseline value | TMPRSS2 mRNA levels (% baseline value) of cells without AR agonist treatment (TMPRSS2 mRNA; ASO 0.20 μM): 117 % baseline value | TMPRSS2 mRNA levels (% baseline value) of cells without AR agonist treatment (TMPRSS2 mRNA; ASO 1.0 μM): 77 % baseline value | TMPRSS2 mRNA levels (% baseline value) of cells without AR agonist treatment (TMPRSS2 mRNA; ASO 5.0 μM): 73 % baseline value | Percent inhibition of AR mRNA (AR mRNA [3]; 0.02 μM): 0% | Percent inhibition of AR mRNA (AR mRNA [3]; 0.1 μM): 0% | Percent inhibition of AR mRNA (AR mRNA [3]; 0.5 μM): 0% | Percent inhibition of AR mRNA (AR mRNA [3]; 10 μM): 17%

549434 (k[5mC]*kT*kA*dA*dA*d[5mC]*dT*dT*d[5mC]*d[5mC]*d[5mC]*dG*dT*kG*kG*k[5mC]) [compound 549434]
% inhibition (AR mRNA [4]): 96% | percent inhibition of AR (AR mRNA [5]; 55.6 nM): 38% | percent inhibition of AR (AR mRNA [5]; 166.7 nM): 60% | percent inhibition of AR (AR mRNA [5]; 500.0 nM): 86% | percent inhibition of AR (AR mRNA [5]; 1500.0 nM): 96% | IC50 (AR mRNA [5]): 0.085 µM | Percent inhibition of full-length AR mRNA in C4-2B MR cells (total AR mRNA; 0.04 μM): 9% | Percent inhibition of full-length AR mRNA in C4-2B MR cells (total AR mRNA; 0.20 μM): 36% | Percent inhibition of full-length AR mRNA in C4-2B MR cells (total AR mRNA; 1.00 μM): 66% | Percent inhibition of full-length AR mRNA in C4-2B MR cells (total AR mRNA; 5.00 μM): 88% | Percent inhibition of KLK3 mRNA in C4-2B MR cells (KLK3 mRNA; 0.04 μM): 10% | Percent inhibition of KLK3 mRNA in C4-2B MR cells (KLK3 mRNA; 0.20 μM): 47% | Percent inhibition of KLK3 mRNA in C4-2B MR cells (KLK3 mRNA; 1.00 μM): 42% | Percent inhibition of KLK3 mRNA in C4-2B MR cells (KLK3 mRNA; 5.00 μM): 64% | Percent inhibition of KLK2 mRNA in C4-2B MR cells (KLK2 mRNA; 0.04 μM): 5% | Percent inhibition of KLK2 mRNA in C4-2B MR cells (KLK2 mRNA; 0.20 μM): 27% | Percent inhibition of KLK2 mRNA in C4-2B MR cells (KLK2 mRNA; 1.00 μM): 49% | Percent inhibition of KLK2 mRNA in C4-2B MR cells (KLK2 mRNA; 5.00 μM): 68% | Percent inhibition of C4-2B MR cell proliferation (C4-2B MR cells; 0.04 μM): 0% | Percent inhibition of C4-2B MR cell proliferation (C4-2B MR cells; 0.20 μM): 0% | Percent inhibition of C4-2B MR cell proliferation (C4-2B MR cells; 1.00 μM): 21% | Percent inhibition of C4-2B MR cell proliferation (C4-2B MR cells; 5.00 μM): 22%
